Data: paper PMC6367340, “Novel insights into P450 BM3 interactions with FDA-approved antifungal azole drugs” (Scientific Reports, 2019)
“Also recorded” adds a separate entry of the source. Where two headings read alike, the source gives them in different places.

How the values were obtained:
[1] = molecular target: T1, WT BM3 heme domain (Priestia megaterium, UniProt P14779); assay: biochemical; type: binding, Bacillus megaterium; settings: for Delta Abs/Soret Peak: maximal peak-minus-trough value divided by P450 Soret peak value; for Soret Shift (final Soret wavelength at apparent saturation): starting wavelength 418 nm
T1 construct: The BM3 heme domain proteins (WT and the DM A82F/F87V variant) used in this study were expressed as described in our previous studies; made in house; host or cells: E. coli BL21 (DE3)
T1 sequence (P14779 2-472): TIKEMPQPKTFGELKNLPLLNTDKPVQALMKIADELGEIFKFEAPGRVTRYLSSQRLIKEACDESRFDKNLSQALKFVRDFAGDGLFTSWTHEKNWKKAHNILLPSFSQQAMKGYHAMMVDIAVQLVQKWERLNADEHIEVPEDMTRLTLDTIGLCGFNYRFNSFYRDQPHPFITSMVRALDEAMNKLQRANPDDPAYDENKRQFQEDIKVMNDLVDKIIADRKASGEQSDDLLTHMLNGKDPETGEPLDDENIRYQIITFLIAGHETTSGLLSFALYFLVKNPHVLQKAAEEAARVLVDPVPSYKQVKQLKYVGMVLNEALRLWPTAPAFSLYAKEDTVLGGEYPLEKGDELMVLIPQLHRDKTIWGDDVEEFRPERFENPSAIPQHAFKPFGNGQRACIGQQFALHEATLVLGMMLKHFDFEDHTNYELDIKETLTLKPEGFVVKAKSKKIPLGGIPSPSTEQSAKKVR
From the text: (§1) This leads to dioxygen (O2) binding to heme iron and to the progression of the P450 catalytic cycle that leads to monooxygenation of the substrate. […] P450 UV-visible binding assays and other spectroscopic studies using azoles are often hindered by the low solubility of many of these drugs. […] The azoles used range widely in size and structure, and contain either an imidazole or a triazole functional group (or two triazole groups in the case of fluconazole). […] Spectral binding data were fitted using hyperbolic (Michaelis-Menten)[30] or tight-binding (Morrison)[31] equations, or by using the Hill function[32] in cases where there was a clear sigmoidal dependence of heme absorbance change on azole drug concentration.
(§2) Experiments were performed using a Cary 50 UV-Visible spectrophotometer (Agilent Technologies Ltd). WT and DM heme domains at concentrations of ~2–4 μM were used, and binding titrations were done by the addition of small (typically 0.2–0.4 μL) volumes of azole ligand stocks (1, 10 or 30 mM, to minimize amounts of solvent carrier used) to a 1 mL heme domain sample in a quartz cuvette. An extinction coefficient of 95 mM^−1 cm^−1 was used for the low-spin forms of the WT and DM heme domains. […] Azole drugs were obtained from Merck Chemicals (Nottingham, UK). All azole compounds used in these and other experiments done in this manuscript were sourced from Sigma Aldrich (Cambridge, UK).
(§3) Data were processed by the subtraction of the spectrum of each successive ligand-bound form (from a specific titration set) from the spectrum of the ligand-free enzyme. This produced a set of difference spectra (for each particular azole titration), from which wavelengths associated with the absorbance minimum (Amin) and maximum (Amax) were readily identified. For each titration point, an absorbance difference value was calculated as Amax minus Amin, using the same wavelength pair throughout an individual experiment. These values were then plotted against the relevant azole ligand concentrations used. […] Assays were done using 25 mM KPi (pH 7) at a constant temperature of 30 °C.

[2] = molecular target: T2, BM3 A82F/F87V double mutant (DM) heme domain (Priestia megaterium, UniProt P14779, A83F/F88V); assay: biochemical; type: binding, Bacillus megaterium; settings: for Delta Abs Peak (wavelength maximum of absorbance difference spectrum) / Delta Abs Trough (wavelength minimum of absorbance difference spectrum) / Delta Abs/Soret Peak / Soret Shift (final Soret wavelength at apparent saturation): DM BM3 heme domain; for Delta Abs/Soret Peak: maximal peak-minus-trough value divided by P450 Soret peak value; for Soret Shift (final Soret wavelength at apparent saturation): starting wavelength 418 nm
T2 construct: The BM3 heme domain proteins (WT and the DM A82F/F87V variant) used in this study were expressed as described in our previous studies; made in house; host or cells: E. coli BL21 (DE3)
T2 sequence (P14779 2-472 A83F/F88V): as the sequence (P14779 2-472) above, with A82F, F87V counted along it
From the text: as §1, §2, §3

[3] = tested on: P450 BM3 (CYP102A1); set-up: method as in PMID 10191269; settings: arachidonic acid as the substrate; cited from earlier work
[4] = DM (A82F/F87V) BM3 heme domain, 25 mM KPi pH 7, 30 °C

SMILES	Kd ([1]; Kd, WT BM3 heme domain, 25 mM KPi pH 7, 30 °C, NB = no binding seen in UV-visible spectroscopic titrations)	Delta Abs Peak (wavelength maximum of absorbance difference spectrum) ([1]; WT BM3 heme domain)	Delta Abs Trough (wavelength minimum of absorbance difference spectrum) ([1]; WT BM3 heme domain)	Delta Abs/Soret Peak ([1]; WT BM3 heme domain)	Soret Shift (final Soret wavelength at apparent saturation) ([1]; WT BM3 heme domain)	Delta Abs Peak (wavelength maximum of absorbance difference spectrum) [2]	Delta Abs Trough (wavelength minimum of absorbance difference spectrum) [2]	Delta Abs/Soret Peak [2]	Soret Shift (final Soret wavelength at apparent saturation) [2]	Tighter binding to DM heme domain than to WT heme domain ([2]; DM versus WT heme domain)	Kd [2, 4]	Soret spectral shift / heme absorbance change on titration (in words) ([1]; WT BM3 heme domain)	Kd [1]	catalytic rate for substrate oxidation [3]	Kd ([2]; DM enzyme, Figure S1 legend, tight-binding (Morrison) fit)
Clc1ccc(C(Cn2ccnc2)OCc2ccsc2Cl)c(Cl)c1 (stereo not drawn) [Tioconazole]	24.5 ± 1.1 µM	434 nm	414 nm	0.29	422 nm	434 nm	414 nm	0.44	423 nm	~ 50 fold	390 ± 30 nM				
CCC(C)n1ncn(-c2ccc(N3CCN(c4ccc(OCC5COC(Cn6cncn6)(c6ccc(Cl)cc6Cl)O5)cc4)CC3)cc2)c1=O (stereo not drawn) [Itraconazole]						438 nm	414 nm	0.16	421 nm		50 ± 10 nM	failed to induce a Soret spectral shift of sufficient extent to allow Kd determination; also recorded: no significant spectral shifts			
OC(Cn1cncn1)(Cn1cncn1)c1ccc(F)cc1F [Fluconazole]						434 nm	414 nm	0.19	421 nm		2910 ± 200 nM	failed to induce a Soret spectral shift of sufficient extent to allow Kd determination			
Clc1ccc(C(Cn2ccnc2)OCc2csc3c(Cl)cccc23)c(Cl)c1 (stereo not drawn) [Sertaconazole nitrate]		439 nm	416 nm	0.08	419 nm	433 nm	413 nm	0.45	423 nm		460 ± 10 nM		2.44 ± 0.14 µM		
Clc1ccc(C(Cn2ccnc2)OCc2c(Cl)cccc2Cl)c(Cl)c1 (stereo not drawn) [Isoconazole nitrate]		436 nm	415 nm			435 nm	415 nm				440 ± 20 nM		12 ± 0.5 µM		
Clc1ccc(CCC(Cn2ccnc2)Sc2c(Cl)cccc2Cl)cc1 (stereo not drawn) [Butoconazole nitrate]		434 nm	413 nm	0.35	422 nm	433 nm	413 nm	0.47	424 nm		470 ± 20 nM		3.8 ± 0.12 µM		
C[C@@H](c1ncncc1F)[C@](O)(Cn1cncn1)c1ccc(F)cc1F [Voriconazole]						435 nm	414 nm	0.21	420 nm		1900 ± 130 nM	failed to induce a Soret spectral shift of sufficient extent to allow Kd determination			
CC[C@@H]([C@H](C)O)n1ncn(-c2ccc(N3CCN(c4ccc(OC[C@@H]5CO[C@@](Cn6cncn6)(c6ccc(F)cc6F)C5)cc4)CC3)cc2)c1=O [Posaconazole]						430 nm	395 nm	0.41	422 nm		2690 ± 50 nM	failed to induce a Soret spectral shift of sufficient extent to allow Kd determination; also recorded: no significant spectral shifts			
C[C@@H](c1nc(-c2ccc(C#N)cc2)cs1)[C@](O)(Cn1cncn1)c1ccc(F)cc1F [Ravuconazole]						434 nm	413 nm	0.21	422 nm		340 ± 20 nM	failed to induce a Soret spectral shift of sufficient extent to allow Kd determination; also recorded: no significant spectral shifts			
CCCCC/C=C\C/C=C\C/C=C\C/C=C\CCCC(=O)O [arachidonic acid]														~ 285 s^−1	
CC(C)(C)C(=O)C(Oc1ccc(Cl)cc1)n1ccnc1 (stereo not drawn) [Climbazole]		433 nm	413 nm	0.43	424 nm	430 nm	408 nm	0.50	424 nm		320 ± 10 nM		1.52 ± 0.02 µM		
Clc1ccc(C(Cn2ccnc2)OCc2ccc(Sc3ccccc3)cc2)c(Cl)c1 (stereo not drawn) [Fenticonazole nitrate]		434 nm	415 nm	0.21	419 nm	434 nm	414 nm	0.44	424 nm		520 ± 30 nM		1.89 ± 0.05 µM		
c1ccc(-c2ccc(C(c3ccccc3)n3ccnc3)cc2)cc1 (stereo not drawn) [Bifonazole]		434 nm	413 nm	0.43	423 nm	436 nm	413 nm	0.42	425 nm		130 ± 50 nM		3.54 ± 0.05 µM		130 ± 20 nM
